The target of one data set is T1, human TAAR1 (Homo sapiens, UniProt Q96RJ0).
T1 construct: expressed in transfected cells; host or cells: cAMP Hunter CHO-K1 AGTRL1 Gi cells
T1 sequence (Q96RJ0 1-339): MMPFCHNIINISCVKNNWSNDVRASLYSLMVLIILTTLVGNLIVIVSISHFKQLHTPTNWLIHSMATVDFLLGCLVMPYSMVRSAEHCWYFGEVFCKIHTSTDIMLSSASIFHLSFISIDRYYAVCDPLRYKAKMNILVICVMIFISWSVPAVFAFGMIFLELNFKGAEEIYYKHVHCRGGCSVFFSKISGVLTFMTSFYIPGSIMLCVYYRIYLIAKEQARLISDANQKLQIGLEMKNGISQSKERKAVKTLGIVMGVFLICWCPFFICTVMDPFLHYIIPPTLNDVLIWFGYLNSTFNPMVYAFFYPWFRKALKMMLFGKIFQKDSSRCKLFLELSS
The data set is described as follows: cAMP assay, functional agonist activity at human TAAR1. The class given is cell-based. On the procedure: Cells were seeded in a total volume of 20 µL into white-walled, 384-well microplates, followed by incubation at 37°C for the appropriate time before testing. Different concentrations of compounds were added to cells, and incubation was undertaken at 37°C for 10 min, with p-tyramine used as the MAX control. cAMP modulation was determined using the DiscoverX HitHunter cAMP XS + assay. Percentage activity was calculated using the following equation: Activity %=mean RLUtest sample – mean RLUvehicle control/mean RLUMAX control – mean RLUvehicle control×100%.
A general note: cAMP levels reflect the balance of adenylyl cyclase and phosphodiesterase activity.

For another data set, the target named is T2, human 5-HT1A (Homo sapiens, UniProt P08908).
T2 construct: expressed in transfected cells; host or cells: Gα15-CHO-Clone cells
T2 sequence (P08908 1-422): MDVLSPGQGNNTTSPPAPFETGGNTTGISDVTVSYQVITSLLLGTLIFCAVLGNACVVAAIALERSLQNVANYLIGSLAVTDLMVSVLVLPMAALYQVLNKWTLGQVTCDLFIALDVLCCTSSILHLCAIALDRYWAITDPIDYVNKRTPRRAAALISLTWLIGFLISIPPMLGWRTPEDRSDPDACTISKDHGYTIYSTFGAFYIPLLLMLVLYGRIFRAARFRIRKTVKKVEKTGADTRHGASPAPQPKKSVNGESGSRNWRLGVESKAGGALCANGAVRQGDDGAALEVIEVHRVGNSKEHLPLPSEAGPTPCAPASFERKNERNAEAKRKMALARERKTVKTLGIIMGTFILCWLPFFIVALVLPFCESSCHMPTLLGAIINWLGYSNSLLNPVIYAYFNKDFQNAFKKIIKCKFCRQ
The experiment in a line: Calcium (FLIPR) assay, agonist activity at human 5-HT1A. The class given is cell-based. On the procedure:
With respect to 5-HT1A, recombinant Gα15-CHO-Clone cells expressing human 5-HT1A were used in this test. Cells were cultured with MEM supplemented with 10% FBS, penicillin (100 U/ml), streptomycin (100 μg/ml), and hygromycin B (600 μg/ml) and were seeded in 384-well microplates. Cells were stimulated with different concentrations of compounds for 2 h at 37°C, and the agonistic effect was determined using the FLIPR Calcium Assay Kit. Serotonin was used as the MAX control. Percentage activity was calculated using the following equation: Activity %=mean RLUtest sample−mean RLUvehicle control/mean RLUMAX control−mean RLUvehicle control×100%.

A further data set has as its target T3, human 5-HT2A (Homo sapiens, UniProt P28223).
T3 construct: expressed in transfected cells; host or cells: Flp-In-CHO cell line
The experiment in a line: Calcium (FLIPR) assay, antagonist activity at human 5-HT2A. The class given is cell-based. On the procedure: With regard to 5-HT2A, the agonistic or inhibitory activity of 5-HT2A of compounds was determined using the Flp-In™-CHO cell line expressing human 5-HT2A. Cells were cultured with Ham’s F-12K (Kaighn’s) medium supplemented with 10% FBS, penicillin (100 U/ml), streptomycin (100 μg/ml), and hygromycin B (600 μg/ml) at 37°C in an atmosphere of 95% air and 5% CO2. Cells were stimulated with different concentrations of compounds for 2 h at 37°C after seeding in 384-well microplates. For the determination of agonistic activity, serotonin was used as the MAX control. In the determination of inhibitory activity, ketanserin was used as the MAX control.

The target of the next data set is T4, D2S receptors (Homo sapiens, UniProt P14416).
T4 construct: expressed in transfected cells; host or cells: Flp-In-CHO cells
The data set is described as follows: cAMP assay, inhibition at human dopamine D2S receptors. Type of data set: cell-based. On the procedure:
With regard to D2L and D2S, recombinant Flp-In™-CHO cells expressing human dopamine D2L receptors or D2S receptors were cultured with Ham’s F-12K (Kaighn’s) medium supplemented with 10% FBS, penicillin (100 U/ml), streptomycin (100 μg/ml), and hygromycin B (600 μg/ml) at 37°C in an atmosphere of 5% CO2. The methods of cell inoculation and compound treatment were the same as those for TAAR1, and haloperidol was used as the MAX control. Percentage inhibition was calculated using the following equation: Inhibition %=mean RLUtest sample−mean RLUvehicle control/mean RLUMAX control−mean RLUvehicle control×100%.

Data set [1] in a line: Liver microsomal stability, human. On the procedure:
(§1) Compounds were incubated with samples of liver microsomes from mice, rats, and humans and NADPH for 5, 10, 20, 30, or 60 min at 37°C. A cold acetonitrile solution containing tolbutamide was used to terminate the reaction. Testosterone and dextromethorphan were used as positive controls. LC-MS/MS was employed to determine the retention of compounds. The retention time, chromatogram acquisition, and chromatogram integration of compounds and positive control substances were analyzed using Analyst (AB Sciex, Framingham, MA, United States).
For orientation: Microsomes from liver hold many membrane-bound enzymes, among them those of drug oxidation.

Data set [2] in a line: Liver microsomal stability, mouse. On the procedure: as §1
A short description of data set [3]: Liver microsomal stability, monkey.

Results on one molecule are retold here after PMC10160475, “Biological evaluation and in silico studies of novel compounds as potent TAAR1 agonists that could be used in schizophrenia treatment” (Frontiers in Pharmacology, 2023).

The structures appear in SMILES notation. Some results are limits rather than exact numbers.

T4 sequence (P14416 1-414 isoform P14416-2): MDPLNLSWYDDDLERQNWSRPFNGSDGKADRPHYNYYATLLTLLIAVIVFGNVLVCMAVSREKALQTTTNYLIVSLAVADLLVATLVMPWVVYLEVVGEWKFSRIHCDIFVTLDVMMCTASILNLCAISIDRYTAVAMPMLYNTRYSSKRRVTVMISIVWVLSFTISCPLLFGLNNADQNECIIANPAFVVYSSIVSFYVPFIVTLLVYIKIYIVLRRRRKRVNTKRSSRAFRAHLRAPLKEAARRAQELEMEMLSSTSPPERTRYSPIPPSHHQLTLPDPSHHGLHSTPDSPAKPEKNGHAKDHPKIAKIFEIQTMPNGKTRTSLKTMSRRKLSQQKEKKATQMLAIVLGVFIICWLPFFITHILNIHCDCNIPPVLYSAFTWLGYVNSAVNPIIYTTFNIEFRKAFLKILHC
T3 sequence (P28223 whole entry): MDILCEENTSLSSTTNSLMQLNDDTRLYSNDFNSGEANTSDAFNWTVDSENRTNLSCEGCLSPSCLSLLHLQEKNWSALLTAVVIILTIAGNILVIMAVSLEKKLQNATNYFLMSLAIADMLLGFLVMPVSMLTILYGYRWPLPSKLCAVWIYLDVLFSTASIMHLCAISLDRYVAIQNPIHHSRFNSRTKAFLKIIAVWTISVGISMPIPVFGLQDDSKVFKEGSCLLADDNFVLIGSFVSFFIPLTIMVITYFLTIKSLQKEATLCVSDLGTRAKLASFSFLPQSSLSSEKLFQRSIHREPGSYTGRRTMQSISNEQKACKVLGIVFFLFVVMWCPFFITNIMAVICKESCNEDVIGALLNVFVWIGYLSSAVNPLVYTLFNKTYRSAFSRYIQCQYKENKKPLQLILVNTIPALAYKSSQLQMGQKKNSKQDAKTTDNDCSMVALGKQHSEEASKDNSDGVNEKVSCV

As for `c1csc([C@@H]2CNCCO2)c1` [Compound 50B], the concentration for a half-maximal effect (EC50) (in general, the midpoint of the concentration-response curve) on human TAAR1 was determined as 0.405 µM; on human 5-HT1A, 99.8 µM. Also, the Emax (commonly the maximal effect, on the per cent scale that the assay sets) is 80.1% on human TAAR1 (read-out: TAAR1 Agonist % Emax); 50.3% at human 5-HT1A (serotonin as MAX control, up to 100 μM, read-out: 5-HT1A agonism Emax); 31.5% on human 5-HT2A (ketanserin as MAX control, up to 100 μM); 24.9% at D2S receptors (haloperidol as MAX control, up to 100 μM, read-out: dopamine D2S antagonist Emax). In addition, the IC50 on human 5-HT2A and against D2S receptors was > 100 µM each time. For the same molecule, the “Remaining (T = 60 min)” value is reported as 77.2% in data set [1] (Human liver microsomes, 60 min); 53.5% in data set [2] (Mouse liver microsomes, 60 min); 85.1% in data set [3] (Monkey liver microsomes, 60 min). Also, the intrinsic clearance (CLint scaled) (as a rule, the rate of metabolic loss divided by the concentration) in data set [1] (human, liver microsomes) was 7.74 mL/min/kg; in data set [2] (mouse, liver microsomes), 80.8 mL/min/kg; in data set [3] (monkey, liver microsomes), < 13.5 mL/min/kg. Also, the half-life (usually the time in which the quantity being followed falls by half) is 2.68 h in data set [1] (human, liver microsomes); 1.13 h in data set [2] (mouse, liver microsomes); > 3.1 h in data set [3] (monkey, microsomes).
